Patent publication US20250250647A1, “STABLE CELL CLONES HARBORING REPLICATING SARS-COV-2 RNA” (priority 2021, published 2025)

System: SARS-CoV-2-Rep-NanoLuc-Neo-Nsp1^K164A/H165A replicon
Assay type: cell-based
Conditions: read-out: IC50, mean over stable replicon clones

Structure (SMILES): CC(C)C[C@H](NC(=O)OCc1ccccc1)C(=O)N[C@@H](CC1CCNC1=O)C(O)S(=O)(=O)O (stereo partly shown) [GC376]
- IC50: 9.3 µM
